Source: patent US6737383B1, “Herbicidal oxadiazolidines” (priority 1999, dated 2004)

Legend:
sugar beet = test: Test B pre/postemergence sugar beet; assay type: in vivo, Beta vulgaris
Procedure, shortened: (§1)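 Response is a visual 0-to-10 score relative to untreated plants, where 0 means no effect and 10 means complete control, taken twelve to sixteen days after application. Treatments went onto soil at planting and onto foliage of 1- to 4-leaf plants, using a surfactant-containing non-phytotoxic solvent.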

corn = test: Test B pre/postemergence corn; assay type: in vivo, Zea mays
Procedure, shortened: as §1

velvetleaf = test: Test B pre/postemergence velvetleaf; assay type: in vivo, Abutilon theophrasti
Procedure, shortened: as §1

wheat = test: Test B pre/postemergence wheat; assay type: in vivo, Triticum aestivum
Procedure, shortened: as §1

giant foxtail = test: Test B pre/postemergence giant foxtail; assay type: in vivo, Setaria faberii
Procedure, shortened: as §1

morningglory = test: Test B pre/postemergence morningglory; assay type: in vivo, Ipomoea hederacea
Procedure, shortened: as §1

wild oat = test: Test B pre/postemergence wild oat; assay type: in vivo, Avena fatua
Procedure, shortened: as §1

blackgrass = test: Test B pre/postemergence blackgrass; assay type: in vivo, Alopecurus myosuroides
Procedure, shortened: as §1

purple nutsedge = test: Test B pre/postemergence purple nutsedge; assay type: in vivo, Cyperus rotundus
Procedure, shortened: as §1

bamyardgrass = test: Test B flood test barnyardgrass; assay type: in vivo, Echinochloa crus-galli
Procedure, shortened: (§2)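 Flood test on plants grown to the 2-leaf stage; treated plants kept in greenhouse twelve to sixteen days, then visually rated against controls on a 0 (no effect) to 10 (complete control) scale.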

pigweed = test: Test B pre/postemergence pigweed; assay type: in vivo, Amaranthus retroflexus
Procedure, shortened: as §1

smallflower flatsedge = test: Test B flood test smallflower flatsedge; assay type: in vivo, Cyperus difformis
Procedure, shortened: as §2

bedstraw = test: Test B pre/postemergence bedstraw; assay type: in vivo, Galium aparine; details: Preemergence
Procedure, shortened: as §1

surinam grass = test: Test B pre/postemergence surinam grass; assay type: in vivo, Brachiaria decumbens
Procedure, shortened: as §1

cocklebur = test: Test B pre/postemergence cocklebur; assay type: in vivo, Xanthium strumarium
Procedure, shortened: as §1

crabgrass = test: Test B pre/postemergence crabgrass; assay type: in vivo, Digitaria sanguinalis
Procedure, shortened: as §1

soybean = test: Test B pre/postemergence soybean; assay type: in vivo, Glycine max
Procedure, shortened: as §1

rape = test: Test B pre/postemergence rape; assay type: in vivo, Brassica napus
Procedure, shortened: as §1

duck salad = test: Test B flood test duck salad; assay type: in vivo, Heteranthera limosa
Procedure, shortened: as §2

rice = test: Test B flood test rice; assay type: in vivo, Oryza sativa
Procedure, shortened: as §2

[1] = Postemergence, Rate 125 g/ha, scale of 0 to 10 where 0 is no effect and 10 is complete control
[2] = Postemergence, Rate 250 g/ha, scale of 0 to 10, 0 is no effect, 10 is complete control
[3] = Postemergence, Rate 500 g/ha, scale of 0 to 10 where 0 is no effect and 10 is complete control
[4] = Preemergence, Rate 62 g/ha, scale 0 to 10 (0 no effect, 10 complete control)
[5] = Preemergence, Rate 125 g/ha, scale of 0 to 10 where 0 is no effect and 10 is complete control
[6] = Preemergence, Rate 500 g/ha, scale of 0 to 10 where 0 is no effect and 10 is complete control
[7] = Postemergence, Rate 62 g/ha, scale of 0 to 10, 0 is no effect, 10 is complete control
[8] = Rate 62 g/ha, flood test species, Pre-emergence, visual evaluation after twelve to sixteen days
[9] = Rate 125 g/ha, under heading Pre-emergence, flood test species, visual evaluation after twelve to sixteen days
[10] = Rate 250 g/ha, Pre-emergence (flood test species), scale 0 to 10, 0 is no effect, 10 is complete control
[11] = Rate 500 g/ha, Pre-emergence section of Table B, 0 to 10 scale (0 no effect, 10 complete control)

Compound: CC(=O)OCC(CCl)n1c(=O)on(C(=O)N(c2ccc(F)cc2)C(C)C)c1=O (centres unmarked) [Compound 596]
- Plant response rating, Sugarbeets (sugar beet; [1]): 0
- Sugarbeets plant response rating (sugar beet; [2]): 0
- Plant response rating, Sugarbeets (sugar beet; [3]): 0
- Sugarbeets plant response rating (sugar beet; [4]): 0
- Sugarbeets plant response rating (sugar beet; [5]): 0
- Plant response rating, Sugarbeets (sugar beet; [6]): 0
- Corn plant response rating (corn; [7]): 0
- Plant response rating, Corn (corn; [1]): 0
- Corn plant response rating (corn; [2]): 0
- Plant response rating, Corn (corn; [3]): 0
- Corn plant response rating (corn; [4]): 0
- Corn plant response rating (corn; [5]): 0
- Corn plant response rating (0 to 10 scale) (corn; Preemergence, Rate 250 g/ha): 0
- Plant response rating, Corn (corn; [6]): 0
- Plant response rating, Velvetleaf (velvetleaf; [1]): 0
- Velvetleaf plant response rating (velvetleaf; [2]): 0
- Plant response rating, Velvetleaf (velvetleaf; [3]): 0
- Velvetleaf plant response rating (velvetleaf; [4]): 0
- Velvetleaf plant response rating (velvetleaf; [5]): 0
- Plant response rating, Velvetleaf (velvetleaf; [6]): 0
- Plant response rating, Wheat (wheat; [1]): 0
- Wheat plant response rating (wheat; [2]): 0
- Plant response rating, Wheat (wheat; [3]): 0
- Wheat plant response rating (wheat; [4]): 0
- Wheat plant response rating (wheat; [5]): 0
- Plant response rating, Wheat (wheat; [6]): 0
- Giant foxtail plant response rating (giant foxtail; [7]): 0
- Plant response rating, Giant foxtail (giant foxtail; [1]): 0
- Giant foxtail plant response rating (giant foxtail; [2]): 0
- Plant response rating, Giant foxtail (giant foxtail; [3]): 3
- Giant foxtail plant response rating (giant foxtail; [4]): 0
- Giant foxtail plant response rating (giant foxtail; [5]): 0
- Plant response rating, Giant foxtail (giant foxtail; [6]): 4
- Morningglory plant response rating (morningglory; [7]): 0
- Plant response rating, Morningglory (morningglory; [1]): 0
- Morningglory plant response rating (morningglory; [2]): 0
- Plant response rating, Morningglory (morningglory; [3]): 2
- Morningglory plant response rating (morningglory; [4]): 0
- Morningglory plant response rating (morningglory; [5]): 0
- Plant response rating, Morningglory (morningglory; [6]): 0
- Plant response rating, Wild oats (wild oat; [1]): 0
- Wild oats plant response rating (wild oat; [2]): 0
- Plant response rating, Wild oats (wild oat; [3]): 0
- Wild oats plant response rating (wild oat; [4]): 0
- Wild oats plant response rating (wild oat; [5]): 0
- Plant response rating, Wild oats (wild oat; [6]): 0
- Blackgrass plant response rating (blackgrass; [7]): 0
- Plant response rating, Blackgrass (blackgrass; [1]): 0
- Blackgrass plant response rating (blackgrass; [2]): 0
- Plant response rating, Blackgrass (blackgrass; [3]): 0
- Blackgrass plant response rating (blackgrass; [4]): 0
- Blackgrass plant response rating (blackgrass; [5]): 0
- Blackgrass plant response rating (0 to 10 scale) (blackgrass; Preemergence, Rate 250 g/ha): 0
- Blackgrass plant response rating (blackgrass; [6]): 0
- Nutsedge plant response rating (purple nutsedge; [7]): 0
- Plant response rating, Nutsedge (purple nutsedge; [1]): 0
- Plant response rating, Nutsedge (purple nutsedge; [3]): 0
- Nutsedge plant response rating (purple nutsedge; [4]): 0
- Nutsedge plant response rating (purple nutsedge; [5]): 0
- Plant response rating, Nutsedge (purple nutsedge; [6]): 0
- Plant response rating, Barnyardgrass (0 to 10 scale, 0 is no effect, 10 is complete control) (bamyardgrass; [8]): 0
- Barnyardgrass plant response rating (0 to 10 scale, 0 is no effect, 10 is complete control) (bamyardgrass; [9]): 0
- Barnyardgrass plant response rating (bamyardgrass; [10]): 0
- Barnyardgrass plant response rating (bamyardgrass; [11]): 0
- Plant response rating, Redroot pigweed (pigweed; [1]): 0
- Redroot pigweed plant response rating (pigweed; [2]): 0
- Plant response rating, Redroot pigweed (pigweed; [3]): 0
- Redroot pigweed plant response rating (pigweed; [4]): 0
- Redroot pigweed plant response rating (pigweed; [5]): 0
- Plant response rating, Redroot pigweed (pigweed; [6]): 0
- Plant response rating, S. Flatsedge (0 to 10 scale, 0 is no effect, 10 is complete control) (smallflower flatsedge; [8]): 0
- S. Flatsedge plant response rating (0 to 10 scale, 0 is no effect, 10 is complete control) (smallflower flatsedge; [9]): 0
- S. Flatsedge plant response rating (smallflower flatsedge; [10]): 0
- S. Flatsedge plant response rating (smallflower flatsedge; [11]): 0
- Bedstraw plant response rating (bedstraw; Rate 62 g/ha, scale 0 to 10 (0 no effect, 10 complete control)): 0
- Bedstraw plant response rating (bedstraw; Rate 125 g/ha, scale of 0 to 10 where 0 is no effect and 10 is complete control): 0
- Bedstraw plant response rating (0 to 10 scale) (bedstraw; Rate 250 g/ha): 0
- Bedstraw plant response rating (bedstraw; Rate 500 g/ha, scale of 0 to 10 where 0 is no effect and 10 is complete control): 0
- B. signalgrass plant response rating (surinam grass; [7]): 0
- Plant response rating, B. signalgrass (surinam grass; [1]): 0
- B. signalgrass plant response rating (surinam grass; [2]): 0
- Plant response rating, B. signalgrass (surinam grass; [3]): 0
- B. signalgrass plant response rating (surinam grass; [4]): 0
- B. signalgrass plant response rating (surinam grass; [5]): 0
- B. signalgrass plant response rating (0 to 10 scale, 0 is no effect, 10 is complete control) (surinam grass; Preemergence, Rate 250 g/ha): 0
- B. signalgrass plant response rating (surinam grass; [6]): 0
- Cocklebur plant response rating (cocklebur; [7]): 0
- Plant response rating, Cocklebur (cocklebur; [1]): 0
- Cocklebur plant response rating (cocklebur; [2]): 0
- Plant response rating, Cocklebur (cocklebur; [3]): 0
- Cocklebur plant response rating (cocklebur; [4]): 0
- Cocklebur plant response rating (cocklebur; [5]): 0
- Cocklebur plant response rating (0 to 10 scale) (cocklebur; Preemergence, Rate 250 g/ha): 0
- Plant response rating, Cocklebur (cocklebur; [6]): 0
- Crabgrass plant response rating (crabgrass; [7]): 0
- Plant response rating, Crabgrass (crabgrass; [1]): 0
- Crabgrass plant response rating (crabgrass; [2]): 0
- Plant response rating, Crabgrass (crabgrass; [3]): 2
- Crabgrass plant response rating (crabgrass; [4]): 0
- Crabgrass plant response rating (crabgrass; [5]): 0
- Plant response rating, Crabgrass (crabgrass; [6]): 6
- Plant response rating, Soybean (soybean; [1]): 2
- Soybean plant response rating (soybean; [2]): 2
- Plant response rating, Soybean (soybean; [3]): 3
- Soybean plant response rating (soybean; [4]): 0
- Soybean plant response rating (soybean; [5]): 0
- Plant response rating, Soybean (soybean; [6]): 0
- Rape plant response rating (rape; [7]): 0
- Plant response rating, Rape (rape; [1]): 0
- Rape plant response rating (rape; [2]): 0
- Plant response rating, Rape (rape; [3]): 0
- Rape plant response rating (rape; [4]): 0
- Rape plant response rating (rape; [5]): 0
- Plant response rating, Rape (rape; [6]): 0
- Plant response rating, Ducksalad (0 to 10 scale, 0 is no effect, 10 is complete control) (duck salad; [8]): 0
- Ducksalad plant response rating (0 to 10 scale, 0 is no effect, 10 is complete control) (duck salad; [9]): 0
- Ducksalad plant response rating (duck salad; [10]): 0
- Ducksalad plant response rating (duck salad; [11]): 0
- Plant response rating, Rice (0 to 10 scale, 0 is no effect, 10 is complete control) (rice; [8]): 0
- Rice plant response rating (0 to 10 scale, 0 is no effect, 10 is complete control) (rice; [9]): 0
- Rice plant response rating (rice; [10]): 0
- Rice plant response rating (rice; [11]): 0
